{"source": "patent US7683061B2", "about": "“Triazine dimers for the treatment of autoimmune diseases” (ProMetic BioSciences Inc., priority 2003, dated 2010)", "key": {"[1]": {"test_system": "female Lewis rats, adjuvant-induced arthritis", "experiment": "Freund's adjuvant-induced arthritis (AIA)", "assay_type": "in vivo", "settings": "for reduction of the inflammatory index: intravenous days −3, −2, −1, 12, 13, 14, 18, 19 and 20, from day 3 to day 5, FIG. 10", "text": "AIA was induced in female Lewis rats by the injection of lyophilized Mycobacterium butyricum suspended in mineral oil into the footpad. The development of aridity was monitored over a 3 weeks period post-adjuvant injection, inflammation peaks at day 3 following the adjuvant administration. Immune activation appears around day 14. Compounds were orally or intravenously administered at different doses at day −3, −2 and −1 pre-adjuvant injection and at different regimen as specified in the exponent starting from day 10 through 21 post-adjuvant injection or animals were treated with oral admiration of compound 19a from day −3 to day 21. Body weight was recorded. The arthritis index, which is a measure of inflammation (oedema), redness and stiffness of the articulations, was used to monitor the development of the disease. The degree of arthritis was determined by measuring two perpendicular diameters of the ankles in the mediolateral and dorsoventral planes using a caliper. Joint circumference in millimeters is then calculated using a geometric formula. Both the incidence and severity of the arthritis was evaluated. Incidence is defined as the number of rats with clinical evidence of joint inflammation during the study period."}, "[2]": {"test_system": "peripheral blood mononuclear leukocytes (PBML)", "experiment": "PBML DNA synthesis (thymidine)", "assay_type": "cell-based, human", "settings": "for IC50: Homo sapiens, Leukocyte; for effect on DNA synthesis (in words): resting and stimulated (ConA and PWM) PBML", "text": "(§1) PBML were obtained from the peripheral blood of healthy volunteers. Blood was submitted to gradient centrifugation with Lympholyte-poly (Cedarlane, Hornby, Canada). The layer, which contains the mononuclear leukocytes, was collected and the cells washed three times in PBS. Cells were then suspended in RPMI (Gibco, Burlington, Canada) supplemented with […] (cyclone, Logan USA). Viability was greater than 99% as determined by trypan blue exclusion.\n(§2) PBML were resuspended at 2×10^6 cells mL. 100 μL of PBML (2×10^5 cells) were incubated in a 96-well microtiter plate for 48 h in the presence or absence of compound or protein A. Cells were quiescent or stimulated with concanavalin A (ConA; T-cells) or pokeweed mitogen (PWM; B-cells). After incubation, cells were treated with MTT (cytotoxicity) or pulsed with 1 μCi of [^3]-thymidine (DNA synthesis), [^3H]-uridine (RNA synthesis) or [^3]-leucine (protein synthesis) for 6 h. Plates were harvested on a Tomteck and counted on a Microbeta β-counter."}, "[3]": {"biological_target": "TNFα / p75 TNFα receptor (CD120b) (Homo sapiens, UniProt P01375)", "sequence (P01375 77-233 limits assumed)": "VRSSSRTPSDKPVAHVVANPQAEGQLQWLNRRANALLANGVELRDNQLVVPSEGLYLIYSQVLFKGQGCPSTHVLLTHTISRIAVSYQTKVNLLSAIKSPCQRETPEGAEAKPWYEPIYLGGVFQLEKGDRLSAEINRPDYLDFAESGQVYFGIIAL", "experiment": "Binding ELISA: TNF-α binding to plastic coated TNF-R2", "settings": "for inhibition at 100 µM: 10^−4 M; for inhibition at 10 µM: 10^−5 M", "method": "Compounds were tested for their ability to bind to TNFα or inhibit the interaction of TNFα with its respective receptors; p55 and p75 TNFα receptor. Three binding ELISA assays were undertaken as described by Mancini et al. Biochemical Pharmacology 58, 851-859 (1999). TNFα or receptor (1 μg/mL) was coated on a 96-well plate Maxisorp, overnight at 4° C. After incubation, unbound TNFα or p55 TNFα receptor or p75 TNFα receptor was removed and the plate washed three times with PBS. The plate was then incubated with 100 μL/well of a 2% BSA solution for 1 h at 37° C. to block non specific protein binding. After incubation, the plate was washed three times with PBS. Biotinylated recombinant human TNFα p55 or p75 receptor or biotinylated recombinant human TNFα was added to the wells in the presence or absence of compounds. The plate was incubated for 1 h at 37° C. After incubation, the plate was washed three times with PBS to remove unbound labeled p55 or p75 receptor or recombinant human TNFα. 100 μL of avidin-HRP (diluted 1/2000 in PBS-0.1% BSA) was added to each well and incubated 1 h at 37° C. Bound p55 or p75 receptor or recombinant human TNFα was detected by the addition of 200 μL of 3,3′,5,5′-tetramethylbenzidine (TMB) per well for 15 min. The plate was then read at 655 nm on a EL 800 universal Microplate reader (Bio-Tek, Mississauga, Canada). Data was analyzed in Microsoft Excel and recorded as the percentage of inhibition of p55 or p75 binding to TNFα or TNFα binding to RI (p55) or RII (p75)."}, "[4]": {"test_system": "peripheral blood mononuclear leukocytes (PBML)", "experiment": "PBML protein synthesis (leucine)", "assay_type": "cell-based, human", "settings": "for IC50: Homo sapiens, Leukocyte; for effect on protein synthesis (in words): resting and stimulated PBML", "text": "as §1, §2"}, "[5]": {"test_system": "peripheral blood mononuclear leukocytes (PBML)", "experiment": "PBML RNA synthesis (uridine)", "assay_type": "cell-based, human", "settings": "for IC50: Homo sapiens, Leukocyte; for effect on RNA synthesis (in words): resting and stimulated (ConA and PWM) PBML", "text": "as §1, §2"}, "[6]": {"biological_target": "T1, Fc portion of human IgG (binding of protein A to human IgG)", "T1 construct": "fused on or other part: Horseradish peroxidase chemically conjugated to the IgG (HRP-IgG)", "experiment": "Competitive protein A binding ELISA", "how_it_was_run": "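Protein A coated overnight at 4 °C and blocked with 2% BSA. Compound, diluted in PBS or PBS-20% DMSO, competed with HRP-conjugated human IgG for 1 h at 37 °C. Bound IgG detected with ABTS at 405 nm; IC50 is the concentration inhibiting 50% of protein A binding.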"}, "PBML cytotoxicity (MTT)": {"experiment": "PBML cytotoxicity (MTT)", "assay_type": "cell-based", "settings": "human", "text": "as §1, §2"}, "[7]": {"settings": "Table 1, PBS-20% DMSO, read-out: IC50 (μM): Assay in PBS-20% DMSO"}}, "note": "Where two headings read alike, the source gives them in different places.", "data": [{"molecule": "Oc1ccc(CCNc2nc(NCCNc3nc(NCCc4ccc(O)cc4)nc(Nc4ccccc4)n3)nc(Nc3ccccc3)n2)cc1", "note": "[Compound 1]", "values": [{"measurement": "reduction of the inflammatory index", "setting": "[1]", "value": 20, "unit": "%"}, {"measurement": "IC50", "setting": "[2]; ConA stimulated PBML", "value": 1.42, "unit": "µM"}, {"measurement": "IC50", "setting": "[2]; PWM stimulated PBML", "value": 0.77, "unit": "µM"}, {"measurement": "IC50", "setting": "[2]; Resting PBML", "value": 2.49, "unit": "µM"}, {"measurement": "effect on DNA synthesis (in words)", "setting": "[2]", "value": "suppress"}, {"measurement": "inhibition at 100 µM", "setting": "[3]", "value": 63.3, "unit": "%"}, {"measurement": "inhibition at 10 µM", "setting": "[3]", "value": 38.4, "unit": "%"}, {"measurement": "IC50", "setting": "[4]; ConA stimulated PBML", "value": 2.44, "unit": "µM"}, {"measurement": "IC50", "setting": "[4]; PWM stimulated PBML", "value": 2.96, "unit": "µM"}, {"measurement": "IC50", "setting": "[4]; Resting PBML", "value": 6.48, "unit": "µM"}, {"measurement": "effect on protein synthesis (in words)", "setting": "[4]", "value": "inhibit"}, {"measurement": "IC50", "setting": "[5]; ConA stimulated PBML", "value": 0.92, "unit": "µM"}, {"measurement": "IC50", "setting": "[5]; PWM stimulated PBML", "value": 0.66, "unit": "µM"}, {"measurement": "IC50", "setting": "[5]; Resting PBML", "value": 1.1, "unit": "µM"}, {"measurement": "effect on RNA synthesis (in words)", "setting": "[5]", "value": "suppress"}, {"measurement": "IC50", "setting": "[6]; [7]", "value": 50, "unit": "µM"}, {"measurement": "IC50 at 48 h", "setting": "PBML cytotoxicity (MTT); ConA stimulated PBML", "value": 8.7, "unit": "µM"}, {"measurement": "IC50 at 48 h", "setting": "PBML cytotoxicity (MTT); PWM stimulated PBML", "value": "> 10", "unit": "µM"}, {"measurement": "IC50 at 48 h", "setting": "PBML cytotoxicity (MTT); Resting PBML", "value": "> 10", "unit": "µM"}]}, {"molecule": "Nc1ccc(CCNc2nc(Nc3ccc(CCNc4nc(NCCO)nc(Nc5cccc(N)c5)n4)cc3)nc(Nc3cccc(N)c3)n2)cc1", "note": "[Compound 19a]", "values": [{"measurement": "inhibition of chronic inflammation (days 12 to 21)", "setting": "[1]; IV, days 12 to 19", "value": "strong and significant inhibition of inflammation"}, {"measurement": "inhibition of chronic inflammation (days 12 to 21)", "setting": "[1]; PO, day 16", "value": "strong and significant inhibition of inflammation"}, {"measurement": "reduction of the inflammatory index", "setting": "[1]", "value": 20, "unit": "%"}, {"measurement": "inhibition of inflammation", "setting": "[1]; oral administration, acute inflammation, compared to the control and methotrexate", "value": "significant inhibition of inflammation"}, {"measurement": "inhibition of inflammation", "setting": "[1]; orally every day (days −3 to 21), from day 13 through day 22, FIG. 12", "value": "up to 50%"}, {"measurement": "IC50", "setting": "[2]; ConA stimulated PBML", "value": 1.57, "unit": "µM"}, {"measurement": "IC50", "setting": "[2]; PWM stimulated PBML", "value": 4.38, "unit": "µM"}, {"measurement": "IC50", "setting": "[2]; Resting PBML", "value": 1.9, "unit": "µM"}, {"measurement": "effect on DNA synthesis (in words)", "setting": "[2]", "value": "suppress"}, {"measurement": "inhibition at 100 µM", "setting": "[3]", "value": 27.4, "unit": "%"}, {"measurement": "inhibition at 10 µM", "setting": "[3]", "value": 24.3, "unit": "%"}, {"measurement": "IC50", "setting": "[4]; ConA stimulated PBML", "value": 3.91, "unit": "µM"}, {"measurement": "IC50", "setting": "[4]; PWM stimulated PBML", "value": 4.88, "unit": "µM"}, {"measurement": "IC50", "setting": "[4]; Resting PBML", "value": 9.9, "unit": "µM"}, {"measurement": "effect on protein synthesis (in words)", "setting": "[4]", "value": "inhibit"}, {"measurement": "IC50", "setting": "[5]; ConA stimulated PBML", "value": 0.693, "unit": "µM"}, {"measurement": "IC50", "setting": "[5]; PWM stimulated PBML", "value": 0.398, "unit": "µM"}, {"measurement": "IC50", "setting": "[5]; Resting PBML", "value": 0.399, "unit": "µM"}, {"measurement": "effect on RNA synthesis (in words)", "setting": "[5]", "value": "suppress"}, {"measurement": "IC50", "setting": "[6]; [7]", "value": 0.003, "unit": "µM"}, {"measurement": "IC50", "setting": "[6]; Table 1, PBS, read-out: IC50 (μM): Assay in PBS", "value": 0.06, "unit": "µM"}, {"measurement": "IC50", "setting": "[6]; Table 2, PBS-20% DMSO, n = 5 or 6, read-out: IC50 (n = 5 or 6) PBS-20% DMSO", "value": 0.0035, "unit": "µM"}, {"measurement": "IC50", "setting": "[6]; Table 2, PBS, n = 5 or 6, read-out: IC50 (n = 5 or 6) PBS", "value": 0.088, "unit": "µM"}, {"measurement": "IC50 at 48 h", "setting": "PBML cytotoxicity (MTT); ConA stimulated PBML", "value": 6.8, "unit": "µM"}, {"measurement": "IC50 at 48 h", "setting": "PBML cytotoxicity (MTT); PWM stimulated PBML", "value": "> 10", "unit": "µM"}, {"measurement": "IC50 at 48 h", "setting": "PBML cytotoxicity (MTT); Resting PBML", "value": "≥ 10", "unit": "µM"}]}]}
